Test results as given in patent publication US8101594B2, “Method for improving pancreatic functions” (Morinaga Milk Industry Co., Ltd., priority 2005, dated 2012).

Columns and labels:
[1] = test system: db/db mice; experiment: Serum insulin level (insulin production ability protecting action) in db/db mice after 42 days of oral administration; assay type: in vivo; settings: for Serum insulin levels on 43rd day of administration: male db/db mice, ELISA, negative sample 1.99 ± 0.66; for Pancreatic function (insulin production ability) protecting effect: 0.1 μg/animal; for Pancreatic function (insulin production ability) protecting effect / Serum insulin level as % of that observed in the negative test: 43rd day of continuous administration, db/db mice; for Serum insulin level as % of that observed in the negative test: 1 μg/animal
Experimental: In this test, the endocrine gland cell functions (insulin production ability) protecting action of compounds having a lophenol skeleton was evaluated by using db/db mice known as a model animal of pancreatic hypofunction or pancreatic tissue dysfunction.
4-methyl-cholest-7-en-3-ol produced in Preparation Example mentioned above was used as test sample 1, 4-methyl-ergost-7-en-3-ol was used as test sample 2, and 4-methyl-stigmast-7-en-3-ol was used as test samples 3.
In this test, 6-week old male db/db mice (purchased from Clea Japan, Inc.) were used. These mice were divided into groups, each consisting of 7 animals. Each test sample was dissolved in DMSO, and the concentration was adjusted to 0.1 or 1 μg/mL with physiological saline. The final DMSO concentration was adjusted to 0.2%. The pancreas dysfunction model mice were orally administered with 1 mL of the test sample once a day everyday for 42 days with a sonde. The serum insulin level was measured on the 43rd day of the continuous administration by using Lbis insulin mouse ELISA kit (Shibayagi Co., Ltd).

[2] = test system: db/db mice; experiment: Pancreatic tissue protecting action: number and maximum area of Langerhans islets in pancreatic sections of db/db mice; assay type: in vivo; settings: for Maximum area of Langerhans islets on administration × 10^3 / The numbers of Langerhans islets in sections on 43rd day of administration: 1 μg/animal orally once a day for 42 days; for Maximum area of Langerhans islets on administration × 10^3: negative sample 44.5 ± 17.7; for The numbers of Langerhans islets in sections on 43rd day of administration: pancreatic sections of 3 positions, HE staining, negative sample 40.3 ± 9.7; for Action of protecting pancreatic tissues, especially endocrine cells: 42 days oral
Text: In this test, the pancreatic tissue protecting action of compounds having a lophenol skeleton was examined by using db/db mice known as a model animal of pancreatic hypofunction or pancreatic tissue dysfunction.
4-methyl-cholest-7-en-3-ol produced in Preparation Example mentioned above was used as test sample 1, 4-methyl-ergost-7-en-3-ol was used as test sample 2, 4-methyl-stigmast-7-en-3-ol was used as test samples 3. Further, β-sitosterol (Tama Biochemical Co., Ltd.) was used as a control sample.
In this test, 6-week old male db/db mice (purchased from Clea Japan, Inc.) were used. These mice were divided into groups, each consisting of 7 animals. Each test sample was dissolved in DMSO, and the concentration was adjusted to 1 μg/mL with physiological saline. The final DMSO concentration was adjusted to 0.2%. The model mice were orally administered with 1 mL of the test sample once a day everyday for 42 days with a sonde. On the 43rd day of the continuous administration, the pancreas was extracted, divided into three portions of upstream, midstream and downstream from the duodenum side, and fixed with a formalin solution, and then paraffin blocks were prepared in a conventional manner. Section slides were prepared from the paraffin blocks, and subjected to hematoxylin-eosin staining. The numbers of Langerhans islets existing on the sections of the 3 position of the pancreas, and area of Langerhans islet having the maximum area on each section were measured by using an ocular micrometer on a microscope (“ECLIPSE E600”, NIKON CORP.).

[3] = 0.1 μg/animal orally once a day for 42 days
[4] = 1 μg/animal orally once a day for 42 days

## CC(C)C(C)CCC(C)C1CCC2C3=CCC4C(C)C(O)CCC4(C)C3CCC21C (stereo not shown) [Test sample 2, 4-methyl-ergost-7-en-3-ol]
[1]; [3]
  Serum insulin levels on 43rd day of administration: 2.32 ± 1.52 ng/mL
[1]
  Pancreatic function (insulin production ability) protecting effect: any significant pancreatic function protecting effect was not observed
  Serum insulin level as % of that observed in the negative test: 210%
[1]; [4]
  Serum insulin levels on 43rd day of administration: 4.17 ± 2.23 ng/mL
[2]; 43rd day
  Maximum area of Langerhans islets on administration × 10^3: 178.7 ± 143.4 × 10^3 μm^2
[2]
  The numbers of Langerhans islets in sections on 43rd day of administration: 64.1 ± 9.1 piece
[2]; 1 μg/animal, 43rd day
  Maximum area of Langerhans islets, times as large as that observed in the negative test: 4 times
  Number of Langerhans islets as % of the number in the negative sample-administered mice: 159%
[2]; 1 μg/animal
  Action of protecting pancreatic tissues, especially endocrine cells: had an action of protecting pancreatic tissues

## CC[C@H](CC[C@@H](C)[C@H]1CC[C@H]2[C@@H]3CC=C4C[C@@H](O)CC[C@]4(C)[C@H]3CC[C@]12C)C(C)C [Control sample, β-sitosterol, reference compound]
[2]; 43rd day
  Maximum area of Langerhans islets on administration × 10^3: 69.1 ± 40.6 × 10^3 μm^2
[2]
  The numbers of Langerhans islets in sections on 43rd day of administration: 42.3 ± 20.1 piece
[2]; 1 μg/animal, 43rd day
  Pancreatic function protecting effect: any pancreatic function protecting effect was not observed
[2]; 1 μg/animal, 43rd day, versus negative sample
  Change of numbers and maximum areas of Langerhans islets: don't show any significant change

## CC(C)CCCC(C)C1CCC2C3=CCC4C(C)C(O)CCC4(C)C3CCC21C (stereo not shown) [Test sample 1, 4-methyl-cholest-7-en-3-ol]
[1]; [3]
  Serum insulin levels on 43rd day of administration: 2.33 ± 1.23 ng/mL
[1]
  Pancreatic function (insulin production ability) protecting effect: any significant pancreatic function protecting effect was not observed
  Serum insulin level as % of that observed in the negative test: 184%
[1]; [4]
  Serum insulin levels on 43rd day of administration: 3.67 ± 0.80 ng/mL
[2]; 43rd day
  Maximum area of Langerhans islets on administration × 10^3: 160.0 ± 116.0 × 10^3 μm^2
[2]
  The numbers of Langerhans islets in sections on 43rd day of administration: 75.7 ± 24.7 piece
[2]; 1 μg/animal, 43rd day
  Maximum area of Langerhans islets, times as large as that observed in the negative test: 3.6 times
  Number of Langerhans islets as % of the number in the negative sample-administered mice: 188%
[2]; 1 μg/animal
  Action of protecting pancreatic tissues, especially endocrine cells: had an action of protecting pancreatic tissues

## CCC(CCC(C)C1CCC2C3=CCC4C(C)C(O)CCC4(C)C3CCC21C)C(C)C (stereo not shown) [Test sample 3, 4-methyl-stigmast-7-en-3-ol]
[1]; [3]
  Serum insulin levels on 43rd day of administration: 2.23 ± 0.68 ng/mL
[1]
  Pancreatic function (insulin production ability) protecting effect: any significant pancreatic function protecting effect was not observed
  Serum insulin level as % of that observed in the negative test: 211%
[1]; [4]
  Serum insulin levels on 43rd day of administration: 4.20 ± 1.86 ng/mL
[2]; 43rd day
  Maximum area of Langerhans islets on administration × 10^3: 122.6 ± 51.4 × 10^3 μm^2
[2]
  The numbers of Langerhans islets in sections on 43rd day of administration: 60.4 ± 11.6 piece
[2]; 1 μg/animal, 43rd day
  Maximum area of Langerhans islets, times as large as that observed in the negative test: 2.8 times
  Number of Langerhans islets as % of the number in the negative sample-administered mice: 150%
[2]; 1 μg/animal
  Action of protecting pancreatic tissues, especially endocrine cells: had an action of protecting pancreatic tissues
